Experimental data taken from US20230390287A1, “MODULATORS OF PD-L1/PD-1 INTERACTION AND USES THEREOF” (Ramot at Tel-Aviv University Ltd., priority 2021, published 2023).
Entries after “also recorded” stand apart in the source; their conditions may differ.

Assays:
PD-1/PD-L1 interaction = PD-1/PD-L1 interaction (Homo sapiens (Human), UniProt Q9NZQ7); test: HTRF PD-1/PD-L1 binding assay; assay type: biochemical; parameters: key to HTF assay (100 μM): +: positive compounds using 100 μM on HTRF
[1] = test system: PD-1/PD-L1 interaction on A375 cells; test: Cell-based PD-1/PD-L1 inhibition (accessible PD-L1 by flow cytometry), A375; parameters: species or system human; conditions: Homo sapiens, A-375; A375 stimulated with IFN-γ; 72 hours
Description: PD-1/PD-L1 Inhibition on Human Melanoma and Breast Cancer Cell Lines:
Cells (0.1×10^6 cells) were tested for PD-1/PD-L1 inhibition by co-incubation of hit compounds, DMSO (background), BMS-202 (Selleckchem) and anti-human PD-L1 (BioxCell, Clone 29E.2A3) (positive controls) for 72 hours in 2 ml DMEM medium. Non-confluent cell cultures were scraped into single-cell suspension, washed with PBS, and counted. Cells were subsequently stained with PD-1 fluorescent proxy for 30 minutes at 4° C., washed twice and resuspended in FACS buffer. Cells were analyzed using BD LSRFortessa (BD Biosciences) and data analyzed with FlowJo software for Mac (FlowJo, LLC 2013-2016). Mean fluorescence intensity (MFI) was derived from each sample. The PD-1/PD-L1 inhibition in cells was measured by a decrease in MFI relative to background.
The remaining accessible PD-L1 was determined by flow cytometry.

[2] = test system: patient-derived tumor cells and autologous PBMC (CD8+ T cells); test: Co-culture of patient-derived PBMC and autologous tumor cells; assay type: cell-based, human; conditions: 72 hours of co-culture; 7 patients
Description: Tumor—Lymphocyte Co-Culture:
One day before co-culture, PBMC were re-suspended in RPMI-1640 supplemented with 150 U/ml IL-2 (Peprotech) and cultured overnight at 37° C. Prior to co-culture, tumor cells were stimulated overnight with 200 ng/ml human recombinant IFN-γ (Peprotech). The next day, tumor cells were scraped to single cells and re-suspended in RPMI. PBMC were seeded at a density of […] and stimulated with single cell-dissociated tumor cells at a 2:1 Effector:Target ratio. Co-cultures were performed in the presence of 150 U/ml IL-2 (Peprotech), 5 μg/ml of anti-CD28 (BioxCell) and αPD-L1 blocking antibody or small-molecule inhibitor for 72 hours. The cells were then stained with fluorochrome-labeled antibodies and analyzed using an LSR Fortessa (BD Biosciences) and FlowJo software. […]
The PBMC and tumor cells were co-cultured and treated with anti-CD28 (blue) and PD-L1 inhibitors (small-molecule inhibitor Compound 69 (yellow) and anti-PD-L1 (red)) for 72 hours. The PD-1/PD-L1 inhibition and T-cell activation were assessed using flow cytometry, and the obtained data is shown in FIGS. 8B-E. The anti-PD-L1 (αPD-L1) was added as the relevant control for PD-L1 inhibition.

[3] = test system: MC38 expressing human PD-L1 (MC38-hPD-L1); test: MC38-hPD-L1 tumor model in humanized PD-1 mice; assay type: in vivo
Description: Male C57BL/6N-Pdcd1tm1^(huPDCD1-ICP11)Geno humanized for PD-1 (6 weeks old) were purchased from genOway and housed in an animal facility.
Male C57BL/6N humanized PD-1 mice were implanted with 1×10^6 MC38 cells expressing humanized PD-L1 (MC38-hPD-L1) subcutaneously in the right flank. Twelve days later, when tumor volumes reached approx. 60 mm^3 (40-110 mm^3) as measured by digital caliper, animals were randomized into the three treatment groups (n=6 per group). Compound 69 was administered via intraperitoneal (i.p.) injection at 10 mg/kg for 10 daily doses between study days 12 and 22. Similarly, vehicle control (5% (v/v) DMSO, 30% (v/v) polyethylene glycol (PEG) 300, 5% (v/v) Tween® 80, and double distilled (dd) H2O) was administered. The αPD-L1 antibody Atezolizumab was administered via i.p. injection at 10 mg/kg thrice weekly between study days 12 and 22. The tumor size and body weight were measured every 3 days. The tumor volume was determined by X^2Y0.5 (X, small diameter; Y, large diameter).
At day 30, the mice were euthanized, and MC38 tumors and spleens were collected. Tumor and spleen single-cell suspensions were obtained by mechanical disruption of the tissues. […] The obtained single-cell suspensions were then stained with fluorochrome-labelled antibodies and analyzed using a Cytek Aurora (Cytek) and FlowJo software (TreeStar). […]

PD-1/PD-L1 interaction, sequence (Q9NZQ7 19-238): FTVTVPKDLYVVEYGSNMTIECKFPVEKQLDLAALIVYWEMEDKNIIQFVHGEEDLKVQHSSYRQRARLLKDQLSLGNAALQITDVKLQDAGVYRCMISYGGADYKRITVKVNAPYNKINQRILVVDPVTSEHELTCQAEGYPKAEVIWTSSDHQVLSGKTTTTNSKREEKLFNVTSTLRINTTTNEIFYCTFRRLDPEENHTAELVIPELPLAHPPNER

CCCCCN(CCCCC)C(C)C(=O)c1cc(C)c2ccc3cc(C(C)C)ccc3c2c1.Cl (stereo not drawn) [Compound 69]
IC50 (PD-1/PD-L1 interaction; HTRF dose-response starting from 100 μM): 196 nM
IC50 (PD-1/PD-L1 interaction; Table A, HTRF dose-response, NA = Not applicable (No dose-response effect)): 196 nM
IC50 (PD-1/PD-L1 interaction; Table B, HTRF dose-response, NA = no dose-response effect): 196 nM
HTF assay (100 μM) (PD-1/PD-L1 interaction; compounds at 100 μM, hits defined as at least 50% inhibition of PD-1/PD-L1 interaction): +
IC50 [1]: 1000 nM
CD107a upregulation in CD8+ T cells [2]: induced
IFN-γ secretion in CD8+ T cells [2]: induced
tumor volume reduction relative to vehicle control ([3]; 10 mg/kg i.p., 10 daily doses): 93.6%
cytotoxic CD8+ tumor-infiltrating lymphocytes ([3]; tumors isolated at day 30, flow cytometry): significant increase; also recorded: significantly outperformed the monoclonal antibody
